Source: patent publication US20220202799A1, “PHARMACEUTICAL FORMULATIONS CONTAINING P2Y14 ANTAGONISTS” (priority 2019, published 2022)
Values joined by “and” are separate entries in the source; they are usually repeats but may differ in a detail not shown here. Equal values may be shown once.

Assay: Effect of pH on solubility of PPTN in aqueous medium
Type: physicochemical
Description: The effect of pH on the solubility of PPTN in an aqueous medium was analyzed. Solutions of PPTN in either water or phosphate buffer at various pH values were incubated with agitation for 24-48 hours at room temperature then filtered to remove precipitates, and the PPTN concentration of the filtered solution was analyzed.

In the case of `Cl.O=C(O)c1cc(-c2ccc(C3CCNCC3)cc2)c2ccc(-c3ccc(C(F)(F)F)cc3)cc2c1` [KB-1801.HCl], the “[KB-1801.HCl] by HPLC Analysis (solubility)” value (from here on “[KB-1801.HCl] by HPLC Analysis”) (pH 1.9, 10 mM phosphate buffer, 24-48 h, ~22° C.) is reported as 0.0008 mg/mL and 1.6 μM, the “[KB-1801.HCl] by HPLC Analysis” value (pH 2.8, 10 mM phosphate buffer, 24-48 h, ~22° C.) is reported as 0.0255 mg/mL and 50 μM and the “[KB-1801.HCl] by HPLC Analysis” value (pH 4.8, 0 mM buffer (DIW), >24 h, ~25° C. (from initial sonication)) is reported as ~0.1 mg/mL and 195 μM. For the same molecule, the “[KB-1801.HCl] by HPLC Analysis” value (pH 6.6, 10 mM phosphate buffer, 24-48 h, ~22° C.) was 0.0001 mg/mL and 0.2 μM and the “[KB-1801.HCl] by HPLC Analysis” value (pH 8.2, 10 mM phosphate buffer, 24-48 h, ~22° C.) was 0.0001 mg/mL and 0.2 μM.
